Experimental data reported in patent publication US10016423B2, “Solid forms of nilotinib hydrochloride” (Apotex Inc., priority 2014, dated 2018).

Test: Comparative hygroscopicity testing (water content by Karl Fischer analysis)
Assay type: physicochemical
Conditions: for Water content of sample after testing: after 24 hours at 25° C. in desiccator containing saturated ammonium sulphate solution, 1 g sample in unstoppered vessel, KF analysis; for Increase in water content: after vs before 24 hours at 25° C. over saturated ammonium sulphate solution; for Water content of sample before testing: before hygroscopicity testing, Karl Fischer (KF) analysis
Procedure: The hygroscopicity of form APO-III as reported in WO 2014/059518 A1 was compared with the hygroscopicity of the form APO-VII of the present invention.
The hygroscopicity testing was conducted by placing 1 g of each sample in an unstoppered weighing vessel in a desiccator containing a saturated ammonium sulphate solution. The desiccator was placed in an oven at 25° C. for 24 hours. The water content was measured before and after the testing by Karl Fischer (KF) analysis.

Water content of sample after testing [% w/w]	Increase in water content	Water content of sample before testing [% w/w]	SMILES
0.4757	0.1812	0.2945	Cc1cn(-c2cc(NC(=O)c3ccc(C)c(Nc4nccc(-c5cccnc5)n4)c3)cc(C(F)(F)F)c2)cn1.Cl [Form APO-VII]
3.5671	3.2795	0.2876	Cc1cn(-c2cc(NC(=O)c3ccc(C)c(Nc4nccc(-c5cccnc5)n4)c3)cc(C(F)(F)F)c2)cn1.Cl [Form APO-III]
